According to patent publication US11434492B2, “Ribosome-mediated incorporation of peptides and peptidomimetics” (Arizona Board of Regents on behalf of Arizona State …, priority 2015, dated 2022):
Values joined by “and” are separate entries in the source; they are usually repeats but may differ in a detail not shown here. Equal entries are not always repeated. Peptide text beside a SMILES is read from it.

Tests used:
wild-type ribosomes = test: In vitro translation: suppression of UAG codon at position 10 of DHFR mRNA, S-30 preparation having wild-type ribosomes; format: biochemical, E. coli; settings: compared to wild-type DHFR synthesis
Procedure: (§1) In vitro Protein Translation. Protein translation reactions were carried out in 12-2000 μL of incubation mixture containing 0.4 μL/μL of S-30 system, 100 ng/μL of plasmid, 35 mM Tris acetate, pH 7.4, 190 mM potassium glutamate, 30 mM ammonium acetate, 2 mM DTT, 0.2 mg/mL total E. coli tRNA, 3.5% PEG 6000, 20 μg/mL folinic acid, 20 mM ATP and GTP, 5 mM CTP and UTP, 100 μM amino acids mixture, 0.5 μCi/μL of ^35S-methionine for analytical purposes only and 1 μg/mL rifampicin. In the case of plasmids having a gene with a TAG codon, a suppressor tRNA was added to a concentration of 0.8 μg/μL. Reactions were carried out at 37° C. for 1 h (for 12 μL reaction mixtures) to 1.5 h (for 2000 μL reaction mixtures) and terminated by chilling on ice. Aliquots from in vitro translation mixtures were analyzed by SDS-PAGE followed by quantification of the radioactive bands by phosphorimager analysis.
Incorporation of Glycylphenylalanine (2) Using the Wild-Type Ribosome. The wild-type ribosomes synthesize polypeptide chains by incorporating one α-L-amino acid at a time via one monoacylated tRNA for each corresponding codon in the mRNA transcript.^6 Ribosome mediated sequential incorporation of two amino acids for one codon using bisacylated tRNAs has not been reported to date. […]

[1] = test system: modified ribosomes (23S rRNA modified); test: In vitro translation: suppression of UAG codon at position 10 of DHFR mRNA, S-30 systems having modified ribosomes; format: biochemical, E. coli; settings: for Suppression efficiency in different S-30 systems, having modified ribosomes (%): position 10 of E. coli DHFR, relative to wild-type DHFR = 100
Procedure: Preparation of Aminoacyl-tRNACUAs. The activation of suppressor tRNACUAs was carried out as described previously.^4,5 Briefly, 100-μL reaction mixture of 100 mM Na Hepes, pH 7.5, contained 1.0 mM ATP, 15 mM MgCl2, 100 μg of suppressor tRNACUA-COH, 0.5 A260 unit of N-pentenoyl-protected aminoacyl-pdCpA, 15% DMSO, and 100 units of T4 RNA ligase. The reaction mixture was incubated at 37° C. for 1.5 h and quenched by the addition of 0.1 vol of 3 M NaOAc, pH 5.2. The N-protected aminoacylated tRNA was precipitated with 3 vol of cold ethanol. The efficiency of ligation was estimated by 8% polyarylamide-7 M urea gel electrophoresis (pH 5.0).
The N-pentenoyl-protected aminoacyl-tRNACUAs were deprotected by treatment with 5 mM aqueous […] at 25° C. for 15 min. The solution was centrifuged, and the supernatant was adjusted to 0.3 M NaOAc and treated with 3 vol of cold ethanol to precipitate the aminoacylated tRNA. The tRNA pellet was collected by centrifugation, washed with 70% aq EtOH, air dried and dissolved in 20 μL of RNase free water.
Preparation of S-30 Extracts from Cells Having Modified Ribosomes. Aliquots (5-10 μL) from liquid stocks of E. coli BL-21 (DE-3) cells, harboring plasmids with a wild-type or modified rrnB gene, were placed on LB agar supplemented with 100 µg/mL of ampicillin and grown at 37° C. for 16-18 h. One colony was picked from each agar plate and transferred into 3 mL of LB medium supplemented with 100 μg/mL of ampicillin and 0.5 mM IPTG.
as §1
Incorporation of Dipeptides 2, 3 and 4 into DHFR Using the Modified Ribosomes. Initially, glycylphenylalanine (2) was chosen to screen the selected modified ribosomes for their ability to incorporate a dipeptide into DHFR. It was anticipated that minimal steric hindrance and more flexibility at the N-terminus of the dipeptide (a glycine residue) would enable optimal positioning of the amine for a nucleophilic attack in the PTC of the modified ribosomes. A modified DHFR construct, having a TAG codon in position 10 (pETDH10 plasmid) was used for the incorporation of glycylphenylalanine.
The suppression efficiencies were expressed relative to the wild-type DHFR synthesis. As a negative control, wild-type DHFR synthesis in the presence of nonacylated-tRNACUA was measured for each experiment. The amounts of DHFR produced were quantified with a phosphoimager, which monitored the incorporation of ^35S-methionine into DHFR. Using glycylphenylalanyl-tRNACUA, S-30 preparations having the modified ribosomes from clone groups 1, 2, 3 and 9 produced full length DHFR in ˜9% yields relative to the wild-type DHFR synthesis (Table 3). The modified ribosomes from clone groups 4-8 incorporated glycylphenylalanine (2) with low yields (˜2-4%). For dipeptide 2, best incorporation yields (up to 12%) were obtained by S-30 system having modified ribosomes from clone group 9 (2057AGUGAGA2063 and 2502AUCCGA2507).

[2] = test system: modified ribosomes from clone 010326R6; test: In vitro translation: suppression of TAG codon at position 66 of GFP (pETGFP66), S-30 from clone 010326R6; format: biochemical, Escherichia coli
Procedure: as §1
The free amino acids both have λex in the range 296-302 nm but the λem of 7 is somewhat red-shifted compared to that of 6. […] As a negative control, wild-type GFP synthesis from the modified mRNA in the presence of nonacylated tRNACUA was measured for each experiment. The amounts of GFP produced were quantified with a phosphoimager, which monitored the incorporation of ^35S-methionine into proteins. […]

[3] = test system: E. coli clones having mutations in two regions of the PTC in the 23S rRNA (modified ribosomes); test: Inhibition of cell growth by dipeptidyl-puromycin aminonucleoside 1 (selection of modified ribosomes); format: cell-based; settings: 100 μg/mL 1
Procedure: Selection of Modified Ribosomes using Dipeptidyl-puromycin Aminonucleoside The selection experiments were carried on in a fashion similar to that described previously. (1) Briefly, library from 419 clones, having mutations in two regions of the PTC in the 23S rRNA (2057-2063 and 2496-2501 or 2502-2507) and organized in five 96 well plates (“master plates”), were used for selection of variants with modified ribosome. Three new plates were prepared for each “master plate” by transferring 2 μL of culture from each well of the master plate to the corresponding well of new plate and 98 μL assay solution was added to each well.
A solution without any puromycin derivative was used for control plate. All plates were incubated at 37° C. for 16-18 h in a thermostated shaker, and extent of cell growth was estimated by measuring the optical density at 600 nm. Inhibition of cell growth by 1 was estimated as described in previously. Clones with inhibition value more than 50% were taken for verification. […] Plates were incubated at 37° C. for 16-18 h in a thermostated shaker, extent of cell growth was estimated by measuring the optical density at 600 nm and IC50 data was calculated for each culture.
It was anticipated that the ribosomes of those clones which show sensitivity for 1 would be more likely to accommodate dipeptides or dipeptidomimetics in the PTC during peptide synthesis. […] Plasmids from these clones were isolated and sequenced.

`NCC(=O)N[C@@H](Cc1ccccc1)C(=O)O` [dipeptide 2, glycylphenylalanine] (H-Gly-Phe-OH) was tested, and the suppression efficiency (wild-type ribosomes) was about 2%, the “Suppression efficiency in different S-30 systems, having modified ribosomes (%)” value ([1]; clone group 1) was ~9% and 8.4 ± 1.6% and the “Suppression efficiency in different S-30 systems, having modified ribosomes (%)” value ([1]; clone group 2) was ~8% and 9.5 ± 0.5%. For the same compound, the “Suppression efficiency in different S-30 systems, having modified ribosomes (%)” value ([1]; clone group 3) was 9% and 8.6 ± 1.5%, the “Suppression efficiency in different S-30 systems, having modified ribosomes (%)” value ([1]; clone group 4) was 3.1 ± 0.2% and the “Suppression efficiency in different S-30 systems, having modified ribosomes (%)” value ([1]; clone group 5) was 4.5 ± 0.7%. The “Suppression efficiency in different S-30 systems, having modified ribosomes (%)” value ([1]; clone group 6) was 3.5%, the “Suppression efficiency in different S-30 systems, having modified ribosomes (%)” value ([1]; clone group 7) was 2.1 ± 0.1% and the “Suppression efficiency in different S-30 systems, having modified ribosomes (%)” value ([1]; clone group 8) was 2.2%. The “full length DHFR yield relative to the wild-type DHFR synthesis” value ([1]; clone groups 1, 2, 3 and 9, position 10 of DHFR) was about 9% and the “incorporation yield relative to the wild-type DHFR synthesis” value ([1]; clone groups 4-8, position 10 of DHFR) was 2-4%.

`N[C@@H](Cc1ccccc1)C(=O)NCC(=O)O` [dipeptide 3, phenylalanylglycine] (H-Phe-Gly-OH) was tested, and the “Suppression efficiency in different S-30 systems, having modified ribosomes (%)” value ([1]; clone group 1) was ~14% and 13.9 ± 1.7%, the “Suppression efficiency in different S-30 systems, having modified ribosomes (%)” value ([1]; clone group 2) was ~12% and 10.6 ± 0.5% and the “Suppression efficiency in different S-30 systems, having modified ribosomes (%)” value ([1]; clone group 3) was 10% and 12.7 ± 2.5%. For the same compound, the “Suppression efficiency in different S-30 systems, having modified ribosomes (%)” value ([1]; clone group 9) was ~13% and 13.3 ± 2.5%.

With `COc1ccc(-c2sc(CN)nc2C(=O)O)cc1` [dipeptidomimetic 7] the “suppression yield (full length GFP) relative to wild-type GFP synthesis” value [2] was about 3.5%.

For `COc1ccc(C[C@H](N)C(=O)NCC(=O)N[C@H]2[C@@H](O)[C@H](n3cnc4c(N(C)C)ncnc43)O[C@@H]2CO)cc1` [puromycin derivative 1, 9-[3″-Deoxy-3″-(O-methyl-(S)-tyrosylglycyl)-β-D-ribofuranosyl]-6-(N,N″ dimethylamino)purine], the “Inhibition by Puromycin Derivative 1 (%)” value ([3]; Wild-type ribosomes) was under 1%, the “Inhibition by Puromycin Derivative 1 (%)” value ([3]; clone 010309R3 (clone group 1)) was 63.2% and the “Inhibition by Puromycin Derivative 1 (%)” value ([3]; clone 010310R1 (clone group 4)) was 52.9%. For the same compound, the “Inhibition by Puromycin Derivative 1 (%)” value ([3]; clone 010310R4 (clone group 2)) was 52.9%, the “Inhibition by Puromycin Derivative 1 (%)” value ([3]; clone 010322 (clone group 1)) was 77% and the “Inhibition by Puromycin Derivative 1 (%)” value ([3]; clone 010326R1 (clone group 5)) was 50.4%. For the same compound, the “Inhibition by Puromycin Derivative 1 (%)” value ([3]; clone 010326R5 (clone group 3)) was 50.4%, the “Inhibition by Puromycin Derivative 1 (%)” value ([3]; clone 010326R6 (clone group 1)) was 50.4% and the “Inhibition by Puromycin Derivative 1 (%)” value ([3]; clone 010328R2 (clone group 5)) was 77%. For the same compound, the “Inhibition by Puromycin Derivative 1 (%)” value ([3]; clone 010328R4 (clone group 1)) was 61%, the “Inhibition by Puromycin Derivative 1 (%)” value ([3]; clone 040322 (clone group 6)) was 54% and the “Inhibition by Puromycin Derivative 1 (%)” value ([3]; clone 040329 (clone group 7)) was 54%. For the same compound, the “Inhibition by Puromycin Derivative 1 (%)” value ([3]; clone 040338 (clone group 8)) was 56% and the “Inhibition by Puromycin Derivative 1 (%)” value ([3]; clone 080337 (clone group 9)) was 51%.

With phenylalanylphenylalanyl [dipeptide 4] the “Suppression efficiency in different S-30 systems, having modified ribosomes (%)” value ([1]; clone group 1) was about 4%.
